Measured values: patent publication USRE48335E1, “Polymyxin derivatives as antimicrobial compounds” (priority 2014, dated 2020)
Converted amounts (≈) assume the structure as drawn. Starred links: 1 amine or outer side, 2 acyl side, 3 side chain; linkers in the order of their positions; H or OH if unused. Positions of bridges follow the written chain, without caps; N, C: chain ends. Non-standard residues stand in square brackets, D forms with d. Residues, ends and D or L forms follow the SMILES beside them. ξ: configuration not given here. *: point of attachment. X2 = CC(C)C[C@@H](CC(=O)[C@H](CCN)N[*:1])C(=O)[*:2]; Benzoyl(3-CF3) = O=C(c1cccc(C(F)(F)F)c1)*; Thr(3ξ) = CC(O)[C@H](N)C(=O)O; dNle = CCCC[C@@H](N)C(=O)O; Octanoyl = CCCCCCCC(=O)*; Dab = NCC[C@H](N)C(=O)O; Abu = CC[C@H](N)C(=O)O; Dap = NC[C@H](N)C(=O)O

Tests used:
[1] = tested on: K. pneumoniae FADDI-KP032; test: In vivo efficacy in mouse blood infection model (neutropenic Swiss mice); settings: compound, free base 4 mg/kg intravenously 2 h after inoculation, blood at 4 h
Procedure, shortened: (§1)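 Neutropenic Swiss mice (cyclophosphamide 150 mg/kg day −4, 100 mg/kg day −1, i.p.) infected i.v. with early log-phase bacteria; 4 mg/kg free base i.v. given 2 h post-inoculation. Blood CFU by cardiac puncture 4 h post-dose; Δlog10 CFU/mL treated versus saline controls.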

[2] = tested on: P. aeruginosa ATCC 27853; test: as above; settings: compound, free base 4 mg/kg intravenously 2 h after inoculation, blood at 4 h
Procedure, shortened: as §1

[3] = tested on: A. baumannii ATCC 19606; test: as above; settings: compound, free base 4 mg/kg intravenously 2 h after inoculation, blood at 4 h
Procedure, shortened: as §1

[4] = tested on: Enterobacter cloacae
Procedure, shortened: (§2)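 Read-out is the MIC, obtained by broth microdilution under CLSI guidance. Lipopeptides (TFA salt form) were diluted in cation-adjusted Mueller-Hinton broth, with polymyxin B sulphate run alongside as control.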

[5] = tested on: Klebsiella pneumoniae
Procedure, shortened: as §2

[6] = tested on: Pseudomonas aeruginosa
Procedure, shortened: as §2

[7] = tested on: Acinetobacter baumannii
Procedure, shortened: as §2

Row | Compound | Δ log (Treated-Control at 4 h) [1] [log10 CFU/mL] | Δ log (Treated-Control at 4 h) [2] [log10 CFU/mL] | Δ log (Treated-Control at 4 h) [3] [log10 CFU/mL] | Minimum inhibitory concentration, Ec FADDI-EC001 [4] [µg/mL] | Minimum inhibitory concentration, Ec FADDI-EC003 [4] [µg/mL] | Minimum inhibitory concentration, Ec FADDI-EC006 [4] [µg/mL] | MIC [5] [µg/mL] | MIC [6] [µg/mL] | Minimum inhibitory concentration, Pa ATCC 27853 [6] [µg/mL] | Minimum inhibitory concentration, Pa FADDI-PA022 [6] [µg/mL] | Minimum inhibitory concentration, Pa FADDI-PA025 [6] [µg/mL] | MIC [7] [µg/mL] | Minimum inhibitory concentration, Ab A ATCC 17978 [7] [µg/mL] | Minimum inhibitory concentration, Ab ATCC 19606 [7] [µg/mL] | Minimum inhibitory concentration, Ab FADDI-AB034 [7] [µg/mL]
1 | CCCCCCCC(=O)N[C@@H](CCN)C(=O)N[C@H](C(=O)N[C@H](CO)C(=O)N[C@H]1CCNC(=O)[C@H](C(C)O)NC(=O)[C@H](CCN)NC(=O)[C@H](CCN)NC(=O)[C@H](C(C)O)NC(=O)[C@@H](CC(C)C)CC(=O)[C@H](CCN)NC1=O)C(C)O (stereo partly shown) [Compound 1] (Octanoyl-[Dab][Thr(3ξ)][dS][Dab][X2][Thr(3ξ)][Dab][Dab][Thr(3ξ)]; lactam 4-C) | −3.49 | 0.40 | −2.13 | <0.125 | <0.125 | 0.5 (≈ 0.443 µM) | 0.5 (≈ 0.443 µM) | 4 (≈ 3.54 µM) | 4 (≈ 3.54 µM) | 4 (≈ 3.54 µM) | >32 | <0.125 | 0.25 (≈ 0.221 µM) | 1 (≈ 0.885 µM) | 0.25 (≈ 0.221 µM)
2 | CCCCCCCC(=O)N[C@@H](CCN)C(=O)N[C@H](C(=O)N[C@@H](CO)C(=O)N[C@H]1CCNC(=O)[C@H]([C@@H](C)O)NC(=O)[C@H](CCN)NC(=O)[C@H](CCN)NC(=O)[C@H]([C@@H](C)O)NC(=O)[C@@H](CC(C)C)NC(=O)[C@H](CCN)NC1=O)[C@@H](C)O [Compound 4] (Octanoyl-[Dab]TS[Dab][Dab][dL]T[Dab][Dab]T; lactam 4-C) | −1.84 |  |  | 0.5 (≈ 0.442 µM) | 0.25 (≈ 0.221 µM) | 1 (≈ 0.885 µM) | 1 (≈ 0.885 µM) | 4 (≈ 3.54 µM) | 4 (≈ 3.54 µM) | 8 (≈ 7.08 µM) | >32 | 8 (≈ 7.08 µM) | 8 (≈ 7.08 µM) | 8 (≈ 7.08 µM) | 4 (≈ 3.54 µM)
3 | CCCCCCCC(=O)N[C@@H](CCN)C(=O)N[C@H](C(=O)N[C@H](CO)C(=O)N[C@H]1CCNC(=O)[C@H]([C@@H](C)O)NC(=O)[C@H](CCN)NC(=O)[C@H](CCN)NC(=O)[C@H]([C@@H](C)O)NC(=O)[C@@H](CCCC)NC(=O)[C@H](CCN)NC1=O)[C@@H](C)O [Compound 7] (Octanoyl-[Dab]T[dS][Dab][Dab][dNle]T[Dab][Dab]T; lactam 4-C) | −3.39 | −0.61 | −2.87 | 0.25 (≈ 0.221 µM) | 0.25 (≈ 0.221 µM) | 0.5 (≈ 0.442 µM) | <0.125 |  | 2 (≈ 1.77 µM) | 4 (≈ 3.54 µM) | >32 | 0.25 (≈ 0.221 µM) | <0.125 | 0.25 (≈ 0.221 µM) | <0.125
4 | CCCCCCCC(=O)N[C@@H](CCN)C(=O)N[C@H](C(=O)N[C@@H](CCN)C(=O)N[C@H]1CCNC(=O)[C@H]([C@@H](C)O)NC(=O)[C@H](CCN)NC(=O)[C@H](CCN)NC(=O)[C@H]([C@@H](C)O)NC(=O)[C@@H](CC(C)C)NC(=O)[C@H](CCN)NC1=O)[C@@H](C)O [Compound 20] (Octanoyl-[Dab]T[Dab][Dab][Dab][dL]T[Dab][Dab]T; lactam 4-C) | −3.50 | −2.13 | −1.86 | <0.125 | 0.5 (≈ 0.437 µM) | <0.125 | 0.25 (≈ 0.219 µM) | 0.5 (≈ 0.437 µM) | 0.5 (≈ 0.437 µM) | 0.5 (≈ 0.437 µM) | >32 | 4 (≈ 3.5 µM) | 4 (≈ 3.5 µM) | 4 (≈ 3.5 µM) | 2 (≈ 1.75 µM)
5 | CCCCCCCC(=O)N[C@@H](CCN)C(=O)N[C@H](C(=O)N[C@@H](CCN)C(=O)N[C@H]1CCNC(=O)[C@H]([C@@H](C)O)NC(=O)[C@H](CCN)NC(=O)[C@H](CCN)NC(=O)[C@H](CO)NC(=O)[C@@H](CC(C)C)NC(=O)[C@H](CCN)NC1=O)[C@@H](C)O [Compound 25] (Octanoyl-[Dab]T[Dab][Dab][Dab][dL]S[Dab][Dab]T; lactam 4-C) | −2.65 |  | 0.27 | <0.125 | 0.25 (≈ 0.221 µM) | 0.5 (≈ 0.443 µM) | 0.25 (≈ 0.221 µM) | >32 | >32 | 0.5 (≈ 0.443 µM) | >32 | 8 (≈ 7.08 µM) | 4 (≈ 3.54 µM) | 8 (≈ 7.08 µM) | 4 (≈ 3.54 µM)
6 | CC[C@@H]1NC(=O)[C@@H](CC(C)C)NC(=O)[C@H](CCN)NC(=O)[C@@H](NC(=O)[C@H](CN)NC(=O)[C@@H](NC(=O)[C@H](CCN)NC(=O)c2cccc(C(F)(F)F)c2)[C@@H](C)O)CCNC(=O)[C@H]([C@@H](C)O)NC(=O)[C@H](CCN)NC(=O)[C@H](CCN)NC1=O [Compound 106] ({Benzoyl(3-CF3)}-[Dab]T[Dap][Dab][Dab][dL][Abu][Dab][Dab]T; lactam 4-C) | −2.77 | −2.33 |  | 0.25 (≈ 0.216 µM) | 0.5 (≈ 0.431 µM) | 0.25 (≈ 0.216 µM) | 0.25 (≈ 0.216 µM) | 0.5 (≈ 0.431 µM) | 0.5 (≈ 0.431 µM) | 0.5 (≈ 0.431 µM) | 2 (≈ 1.73 µM) | 0.5 (≈ 0.431 µM) | 0.5 (≈ 0.431 µM) | 0.5 (≈ 0.431 µM) | 0.25 (≈ 0.216 µM)
7 | CC[C@@H]1NC(=O)[C@@H](Cc2ccccc2)NC(=O)[C@H](CCN)NC(=O)[C@@H](NC(=O)[C@H](CN)NC(=O)[C@@H](NC(=O)[C@H](CCN)NC(=O)c2cccc(C(F)(F)F)c2)[C@@H](C)O)CCNC(=O)[C@H]([C@@H](C)O)NC(=O)[C@H](CCN)NC(=O)[C@H](CCN)NC1=O [Compound 122] ({Benzoyl(3-CF3)}-[Dab]T[Dap][Dab][Dab][dF][Abu][Dab][Dab]T; lactam 4-C) |  | −3.70 | −1.58 | 0.5 (≈ 0.419 µM) | 0.5 (≈ 0.419 µM) | 0.25 (≈ 0.21 µM) | 0.5 (≈ 0.419 µM) | 2 (≈ 1.68 µM) | 2 (≈ 1.68 µM) | 2 (≈ 1.68 µM) | 2 (≈ 1.68 µM) | 0.5 (≈ 0.419 µM) | 0.25 (≈ 0.21 µM) | 0.5 (≈ 0.419 µM) | 0.5 (≈ 0.419 µM)
8 | CCCC[C@H]1NC(=O)[C@H](CCN)NC(=O)[C@@H](NC(=O)[C@H](CN)NC(=O)[C@@H](NC(=O)[C@H](CCN)NC(=O)c2cccc(C(F)(F)F)c2)[C@@H](C)O)CCNC(=O)[C@H]([C@@H](C)O)NC(=O)[C@H](CCN)NC(=O)[C@H](CCN)NC(=O)[C@H]([C@@H](C)O)NC1=O [Compound 123] ({Benzoyl(3-CF3)}-[Dab]T[Dap][Dab][Dab][dNle]T[Dab][Dab]T; lactam 4-C) |  | −2.96 | −1.53 | 0.5 (≈ 0.425 µM) | 0.5 (≈ 0.425 µM) | 1 (≈ 0.851 µM) | 0.5 (≈ 0.425 µM) | 0.5 (≈ 0.425 µM) | 0.5 (≈ 0.425 µM) | 0.5 (≈ 0.425 µM) | 2 (≈ 1.7 µM) | 1 (≈ 0.851 µM) | 1 (≈ 0.851 µM) | 1 (≈ 0.851 µM) | 0.5 (≈ 0.425 µM)
9 | C[C@@H]1NC(=O)[C@@H](Cc2ccccc2)NC(=O)[C@H](CCN)NC(=O)[C@@H](NC(=O)[C@H](CN)NC(=O)[C@@H](NC(=O)[C@H](CCN)NC(=O)c2cccc(C(F)(F)F)c2)[C@@H](C)O)CCNC(=O)[C@H]([C@@H](C)O)NC(=O)[C@H](CCN)NC(=O)[C@H](CCN)NC1=O [Compound 126] ({Benzoyl(3-CF3)}-[Dab]T[Dap][Dab][Dab][dF]A[Dab][Dab]T; lactam 4-C) | −2.68 | −3.97 |  | 0.5 (≈ 0.424 µM) | 0.5 (≈ 0.424 µM) | 0.5 (≈ 0.424 µM) | 0.5 (≈ 0.424 µM) | 0.25 (≈ 0.212 µM) | 0.25 (≈ 0.212 µM) | 1 (≈ 0.848 µM) | 2 (≈ 1.7 µM) | 1 (≈ 0.848 µM) | 1 (≈ 0.848 µM) | 1 (≈ 0.848 µM) | 1 (≈ 0.848 µM)
